Assay results taken from patent US4119722A, “Method for control of fungi using 4-halo-5-aryl-1,2,3,-dithiazoles” (Chevron Research Company, priority 1977, dated 1978).

How the values were obtained:
[1] = tested on: Erysiphe polygoni; assay: Powdery Mildew control on bean seedlings; format: in vivo; settings: 250-ppm spray, about 10 days
Description: The powdery mildew test was made using bean seedlings (var. Bountiful) with well-developed primary leaves. The pathogen was Erysiphe polygoni. The bean seedlings were sprayed with a 250-ppm solution of the test compound in an acetone-water mixture containing a nonionic emulsifer. The treated plants were inoculated one day after spray application of the test compound with the pathogen. […] The rate of infection on the leaves was made after about 10 days. The percent disease control provided by a given test compound was based on the disease reduction relative to untreated check plants.

[2] = tested on: Aspergillus niger; assay: Mycelia Inhibition; format: cell-based; settings: 25° C., 24 hours
Protocol: (§1) The compounds of the present invention were evaluated for fungicidal effectiveness by means of a mycelial inhibition test. This test is designed to measure the fungitoxic acitvity of fungicidal chemicals in terms of their degree of inhibition of mycelium growth. Each compound to be tested was dissolved in acetone to 500 ppm concentration. Paper strips were innoculated with the particular mycelium growth by covering the paper with a potato dextrose broth culture of mycelial suspension. The innoculated papers were then placed on potato dextrose agar plates and sprayed by means of a micro sprayer with the fungicidal solution. The treated paper strips were incubated at 25° C. and data is taken after 24 hours. Fungicidal activities are measured by a zone of inhibited mycelial growth from the center of the paper strip. The effectiveness of the compounds tested for fungicidal activity is reported in Table VI in terms of the microgram/cm^2 for 99% control of the fungus.

[3] = tested on: Fusarium moniloforma; assay: Mycelia Inhibition; format: cell-based; settings: 25° C., 24 hours
Protocol: as §1

[4] = tested on: Rhizoctonia solani; assay: Mycelia Inhibition; format: cell-based; settings: 25° C., 24 hours
Protocol: as §1

[5] = tested on: Crabgrass (Digitaria sanguinalis); assay: Post-emergent herbicidal test; format: in vivo; settings: post-emergence, 504 h, 33 mcg/cm^2, 3 weeks, scale 0 (no phytotoxicity) to 100 (complete kill), read-out: Herbicidal Effectiveness (C)
Protocol: (§2) Post-emergent herbicidal tests with representative compounds of this invention were made using the following method.
(§3) An acetone solution of the test compound was prepared by mixing 750 mg of the compound, 220 mg of a nonionic surfactant and 25 ml of acetone. This solution was added to approximately 125 ml of water containing 156 mg of surfactant.
(§4) This test solution was uniformly sprayed on 2 similar pots of 24-day-old plants (approximately 15 to 25 plants per pot) at a dose of 33 mcg/cm^2. After the plants had dried, they were placed in a greenhouse and then watered intermittently at their bases, as needed. The plants were observed periodically for phytotoxic effects and physiological and morphological responses to the treatment. After 3 weeks, the herbicidal effectiveness of the compound was rated based on these observations. A 0-to-100 scale was used, 0 representing no phytotoxicity and 100 representing complete kill.

[6] = tested on: Lambsquarter (Chenopodium album); assay: Post-emergent herbicidal test; format: in vivo; settings: post-emergence, 504 h, 33 mcg/cm^2, 3 weeks, scale 0 (no phytotoxicity) to 100 (complete kill), read-out: Herbicidal Effectiveness (P)
Protocol: as §2, §3, §4

[7] = tested on: Mustard (Brassica arvensis); assay: Post-emergent herbicidal test; format: in vivo; settings: post-emergence, 504 h, 33 mcg/cm^2, 3 weeks, scale 0 (no phytotoxicity) to 100 (complete kill), read-out: Herbicidal Effectiveness (L)
Protocol: as §2, §3, §4

[8] = tested on: Pigweed (Amaranthus retroflexus); assay: Post-emergent herbicidal test; format: in vivo; settings: post-emergence, 504 h, 33 mcg/cm^2, 3 weeks, scale 0 (no phytotoxicity) to 100 (complete kill), read-out: Herbicidal Effectiveness
Protocol: as §2, §3, §4

[9] = tested on: Watergrass (Echinochloa Crusgalli); assay: Post-emergent herbicidal test; format: in vivo; settings: Echinochloa crus-galli, post-emergence, 504 h, 33 mcg/cm^2, 3 weeks, scale 0 (no phytotoxicity) to 100 (complete kill), read-out: Herbicidal Effectiveness (W)
Protocol: as §2, §3, §4

[10] = tested on: Wild Oats (Avena fatua); assay: Post-emergent herbicidal test; format: in vivo; settings: post-emergence, 504 h, 33 mcg/cm^2, 3 weeks, scale 0 (no phytotoxicity) to 100 (complete kill), read-out: Herbicidal Effectiveness (O)
Protocol: as §2, §3, §4

[11] = tested on: two spotted-mites (Tetramuchus urticae); assay: Mite control test, adult mites; format: in vivo; settings: 40-ppm leaf dip, adult mortality one day after treatment; 1440 min
Protocol: (§5) Compounds of the invention were tested for the control mites and mite eggs by the following procedure. Pinto bean leaves were invested with two spotted-mites (Tetramuchus urticae). The mites were then allowed to lay eggs on the leaves. After 48 hours, the leaves were dipped into a water/acetone solution containing a small amount of a non-ionic surfactant and 40-ppm of the test compound. The treated leaves were then maintained at 85° F. One day after treatment, the mortality of adult mites was determined, and 7 days after treatment, the egg mortality (non-hatching eggs) was determined.

[12] = tested on: mite eggs (Tetramuchus urticae); assay: Mite control test, mite eggs; format: in vivo; settings: 40-ppm leaf dip, egg mortality (non-hatching eggs) 7 days after treatment
Protocol: as §5

[13] = tested on: Alternaria solani; assay: Tomato Early Blight control; format: in vivo; settings: 250-ppm spray, tomato seedlings, inoculated 1 day later
Protocol: Compounds of the invention were tested for the control of the Tomato Early Blight organism, Alternaria solani conidia. […] The tomato plans were sprayed with a 250-ppm solution of the test compound in an acetone-and-water solution containing a small amount of a non-ionic emulsifier. […] Percent disease control was based on the percent disease development on untreated check plants.

[14] = tested on: Phytophthora infestans; assay: whole plant or invertebrate; format: in vivo; settings: in Solanum lycopersicum, 168 h, read-out: Tomato Late Blight, % Control
[15] = tested on: Botrytis cinerea; assay: Mycelia Inhibition; format: cell-based; settings: 25° C., 24 hours
Protocol: as §1

[16] = tested on: Septoria apii; format: in vivo; settings: sprayed celery plants; concentration not given

Clc1cc(Cl)cc(N=c2ssnc2Cl)c1 [Compound 3]
Powdery Mildew % Control [1]: 76%
Mycelia Inhibition, for 99% control (A) [2]: > 1.7 micrograms/cm^2
Mycelia Inhibition, for 99% control (F) [3]: > 1.7 micrograms/cm^2
Mycelia Inhibition, for 99% control (R) [4]: 0.98 micrograms/cm^2
pest or weed control at 33 µg/cm2 [5]: 55%
pest or weed control at 33 µg/cm2 [6]: 100%
pest or weed control at 33 µg/cm2 [7]: 100%
pest or weed control at 33 µg/cm2 [8]: 100%
pest or weed control at 33 µg/cm2 [9]: 85%
pest or weed control at 33 µg/cm2 [10]: 35%
Mite Control, % [11]: 90%
Mite Eggs Control, % [12]: 85%

Clc1ccc(N=c2ssnc2Cl)c(Cl)c1 [Compound 6]
Tomato Early Blight, % Control [13]: 56%
pest or weed control at 33 µg/cm2 [5]: 35%
pest or weed control at 33 µg/cm2 [6]: 95%
pest or weed control at 33 µg/cm2 [7]: 100%
pest or weed control at 33 µg/cm2 [8]: 100%
pest or weed control at 33 µg/cm2 [9]: 55%
pest or weed control at 33 µg/cm2 [10]: 30%
Mite Control, % [11]: 100%
Mite Eggs Control, % [12]: 0%

Cc1ccc(N=c2ssnc2Cl)c(C)c1 [Compound 13]
pest or weed control at 250 µg/mL [14]: 63%
Tomato Early Blight, % Control [13]: 44%
Mycelia Inhibition, for 99% control (A) [2]: 1.1 micrograms/cm^2
Mycelia Inhibition, for 99% control (B) [15]: > 1.7 micrograms/cm^2
Mycelia Inhibition, for 99% control (F) [3]: > 1.7 micrograms/cm^2
Mycelia Inhibition, for 99% control (R) [4]: > 1.7 micrograms/cm^2
pest or weed control at 33 µg/cm2 [5]: 0%
pest or weed control at 33 µg/cm2 [6]: 35%
pest or weed control at 33 µg/cm2 [7]: 50%
pest or weed control at 33 µg/cm2 [8]: 35%
pest or weed control at 33 µg/cm2 [9]: 0%
pest or weed control at 33 µg/cm2 [10]: 0%
Mite Control, % [11]: 0%
Mite Eggs Control, % [12]: 30%

Clc1cccc(N=c2ssnc2Cl)c1 [Compound 15]
pest or weed control at 250 µg/mL [14]: 68%
Mycelia Inhibition, for 99% control (A) [2]: > 1.7 micrograms/cm^2
Mycelia Inhibition, for 99% control (B) [15]: > 1.7 micrograms/cm^2
Mycelia Inhibition, for 99% control (F) [3]: > 1.7 micrograms/cm^2
Mycelia Inhibition, for 99% control (R) [4]: 0.98 micrograms/cm^2
pest or weed control at 33 µg/cm2 [5]: 10%
pest or weed control at 33 µg/cm2 [6]: 80%
pest or weed control at 33 µg/cm2 [7]: 98%
pest or weed control at 33 µg/cm2 [8]: 85%
pest or weed control at 33 µg/cm2 [9]: 45%
pest or weed control at 33 µg/cm2 [10]: 30%

O=[N+]([O-])c1ccc(Oc2cccc(N=c3ssnc3Cl)c2)c(C(F)(F)F)c1 [Compound 17]
pest or weed control at 250 µg/mL [14]: 62%
Celery Late Blight, % Control [16]: 56%

O=[N+]([O-])c1ccc(Oc2cccc(N=c3ssnc3Cl)c2)cc1 [Compound 18]
Tomato Early Blight, % Control [13]: 44%
Celery Late Blight, % Control [16]: 64%
Mycelia Inhibition, for 99% control (A) [2]: > 1.7 micrograms/cm^2
Mycelia Inhibition, for 99% control (B) [15]: > 1.7 micrograms/cm^2
Mycelia Inhibition, for 99% control (F) [3]: > 1.7 micrograms/cm^2
Mycelia Inhibition, for 99% control (R) [4]: 0.45 micrograms/cm^2

O=[N+]([O-])c1ccc(Oc2ccc(N=c3ssnc3Cl)cc2)cc1 [Compound 19]
pest or weed control at 250 µg/mL [14]: 51%
Celery Late Blight, % Control [16]: 62%
Mycelia Inhibition, for 99% control (A) [2]: > 1.7 micrograms/cm^2
Mycelia Inhibition, for 99% control (F) [3]: > 1.7 micrograms/cm^2
Mycelia Inhibition, for 99% control (R) [4]: 0.88 micrograms/cm^2
Mite Control, % [11]: 0%
Mite Eggs Control, % [12]: 78%

O=[N+]([O-])c1ccc(Oc2ccccc2N=c2ssnc2Cl)cc1 [Compound 20]
pest or weed control at 250 µg/mL [14]: 80%
Celery Late Blight, % Control [16]: 62%
Mycelia Inhibition, for 99% control (A) [2]: > 1.7 micrograms/cm^2
Mycelia Inhibition, for 99% control (F) [3]: > 1.7 micrograms/cm^2
Mycelia Inhibition, for 99% control (R) [4]: 1.3 micrograms/cm^2

Fc1ccccc1N=c1ssnc1Cl [Compound 22]
Tomato Early Blight, % Control [13]: 50%
Celery Late Blight, % Control [16]: 80%
Mycelia Inhibition, for 99% control (A) [2]: 1.4 micrograms/cm^2
Mycelia Inhibition, for 99% control (F) [3]: 1.3 micrograms/cm^2
Mycelia Inhibition, for 99% control (R) [4]: 0.73 micrograms/cm^2
pest or weed control at 33 µg/cm2 [5]: 0%
pest or weed control at 33 µg/cm2 [6]: 70%
pest or weed control at 33 µg/cm2 [7]: 85%
pest or weed control at 33 µg/cm2 [8]: 70%
pest or weed control at 33 µg/cm2 [9]: 20%
pest or weed control at 33 µg/cm2 [10]: 0%
Mite Control, % [11]: 0%
Mite Eggs Control, % [12]: 39%

N#Cc1ccc(N=c2ssnc2Cl)cc1 [Compound 23]
pest or weed control at 250 µg/mL [14]: 97%
Tomato Early Blight, % Control [13]: 90%
Celery Late Blight, % Control [16]: 63%
Mycelia Inhibition, for 99% control (A) [2]: > 1.7 micrograms/cm^2
Mycelia Inhibition, for 99% control (B) [15]: 0.78 micrograms/cm^2
Mycelia Inhibition, for 99% control (F) [3]: 1.4 micrograms/cm^2
Mycelia Inhibition, for 99% control (R) [4]: 0.6 micrograms/cm^2

Cc1ccc(Cl)cc1N=c1ssnc1Cl [Compound 28]
Powdery Mildew % Control [1]: 90%
pest or weed control at 33 µg/cm2 [5]: 20%
pest or weed control at 33 µg/cm2 [6]: 95%
pest or weed control at 33 µg/cm2 [7]: 100%
pest or weed control at 33 µg/cm2 [8]: 100%
pest or weed control at 33 µg/cm2 [9]: 65%
pest or weed control at 33 µg/cm2 [10]: 45%
Mite Control, % [11]: 85%
Mite Eggs Control, % [12]: 85%

N#Cc1ccccc1N=c1ssnc1Cl [Compound 29]
Celery Late Blight, % Control [16]: 44%

N#Cc1cc(C(F)(F)F)ccc1Oc1cccc(N=c2ssnc2Cl)c1 [Compound 30]
Celery Late Blight, % Control [16]: 80%
